Test results taken from publication PMC9340770 (Journal of Medicinal Chemistry, 2022).

Assays:
EDNRA = target: T1, EDNRA (Homo sapiens, UniProt P25101); assay: Safetyscan Calcium Flux; format: cell-based
T1 construct: purchased DiscoverX (Eurofins) Safetyscan Panel

PDE4D2 = target: T2, PDE4D2 (Homo sapiens, UniProt Q08499); assay: Safetyscan Enzymatic; format: biochemical; settings: read-out: RC50 (IC50) PDE4D2 Inhibitor
T2 construct: purchased DiscoverX (Eurofins)

COX2 = target: T3, COX2 (Homo sapiens, UniProt P35354); assay: Safetyscan Enzymatic; format: biochemical; settings: read-out: RC50 (IC50) COX2 Inhibitor
T3 construct: purchased DiscoverX (Eurofins)

VEGFR2 = target: T4, VEGFR2 (Homo sapiens, UniProt P35968); assay: Safetyscan Kinases Binding; settings: read-out: RC50 (IC50) VEGFR2 Inhibitor
T4 construct: purchased DiscoverX (Eurofins)

GR = target: T5, GR (Homo sapiens, UniProt P04150); assay: Safetyscan NHR Protein Interaction; format: cell-based
T5 construct: purchased DiscoverX (Eurofins)

ADRB2 = target: T6, ADRB2 (Homo sapiens, UniProt P07550); assay: Safetyscan cAMP; format: cell-based
T6 construct: purchased DiscoverX (Eurofins) Safetyscan Panel

CCKAR = target: T7, CCKAR (Homo sapiens, UniProt P32238); assay: Safetyscan Calcium Flux; format: cell-based
T7 construct: purchased DiscoverX (Eurofins) Safetyscan Panel

ADORA2A = target: T8, ADORA2A (Homo sapiens, UniProt P29274); assay: Safetyscan Calcium Flux; format: cell-based
T8 construct: purchased DiscoverX (Eurofins) Safetyscan Panel

[1] = PK across species (ranges); format: in vivo, CD-1 mice, Sprague–Dawley rats, and beagle dogs; settings: range across mice, rats, dogs
PDE3A = target: T9, PDE3A (Homo sapiens, UniProt Q14432); assay: Safetyscan Enzymatic; format: biochemical; settings: read-out: RC50 (IC50) PDE3A Inhibitor
T9 construct: purchased DiscoverX (Eurofins)

Rat PK (IV and PO) = format: in vivo, Sprague–Dawley rats
From the text: Table 9 PK Parameters for MRTX0902 (32) across Species | column: rat

[2] = test system: safety panel comprised of 78 protein targets; assay: DiscoverX (Eurofins) Safetyscan panel, overall; settings: safety panel of 78 protein targets
ADRB1 = target: T10, ADRB1 (Homo sapiens, UniProt P08588); assay: Safetyscan cAMP; format: cell-based
T10 construct: purchased DiscoverX (Eurofins) Safetyscan Panel

AVPR1A = target: T11, AVPR1A (Homo sapiens, UniProt P37288); assay: Safetyscan Calcium Flux; format: cell-based
T11 construct: purchased DiscoverX (Eurofins) Safetyscan Panel

[3] = test system: pERK in MIA PaCa-2 tumors; assay: Tumor pharmacodynamic (pERK) study in MIA PaCa-2 mouse xenograft
in vivo = settings: CD-1, mouse, po, 30 mg/kg
CAV1.2 = target: T12, CAV1.2 (Homo sapiens, UniProt Q13936); assay: Safetyscan Ion Channel; format: cell-based; settings: blocker mode, read-out: RC50 (IC50) CAV1.2 Blocker
T12 construct: purchased DiscoverX (Eurofins)

SOS2 = target: T13, SOS2 (Homo sapiens, UniProt Q07890); assay: SOS2 KRAS WT GDP exchange assay; format: biochemical
T13 construct: amino acids 558-1047, expressed in E. coli with a N-terminal HIS-tag MW=59.3 kDa; His (N); purchased Accelagen Inc; host or cells: E. coli
Experimental: The plates were incubated overnight at 4 °C on a shaker.
Each plate was washed 3x times […]
for 2 hours (protected from light). The secondary antibody solution as removed and each plate […]
was washed with PBST 3x times. […]
length at 3mm and both 800nm and 700nm filters. The GAPDH normalized scan values for each […]
were then calculated with the Graph pad Prism software.
EGFR selectivity was profiled using Reaction Biology’s radiometric HotSpot kinase assay with human EGFR. Compounds were sent as a powder then suspended as a 10 mM DMSO stock […]
starting at 20 μM. Reactions were carried out at 10 μM ATP.
SOS2 KRAS WT GDP Exchange Assay
The final conditions for the Functional SOS2 Assay are as follows: 50 mM HEPES 7.5, 2nM SOS2, 50nM GTP-CY5, 30nM KRAS, 0.5 nM Tb-SA, 5 mM MgCl2, 1 mM TCEP, 0.2 mg/mL BSA, ~1.0% DMSO. Recombinant human SOS2 polypeptide (Accelagen Inc., corresponding to amino acids 558-1047, expressed in E. coli with a N-terminal HIS-tag MW=59.3 kDa) and Cy5-GTP (Jena Bioscience Inc) were added to an exemplary compound (in a DMSO stock solution) at room temperature for 15 minutes. […] 100 percent of control (POC) is determined by using a DMSO control and 0 POC is determined using a concentration of control […]

INSR = target: T14, INSR (Homo sapiens, UniProt P06213); assay: Safetyscan Kinases Binding; settings: read-out: RC50 (IC50) INSR Inhibitor
T14 construct: purchased DiscoverX (Eurofins)

[4] = CD-1, Sprague-Dawley, beagle, mouse, rat, dog, in vivo, IV administration

T7 sequence (P32238 whole entry): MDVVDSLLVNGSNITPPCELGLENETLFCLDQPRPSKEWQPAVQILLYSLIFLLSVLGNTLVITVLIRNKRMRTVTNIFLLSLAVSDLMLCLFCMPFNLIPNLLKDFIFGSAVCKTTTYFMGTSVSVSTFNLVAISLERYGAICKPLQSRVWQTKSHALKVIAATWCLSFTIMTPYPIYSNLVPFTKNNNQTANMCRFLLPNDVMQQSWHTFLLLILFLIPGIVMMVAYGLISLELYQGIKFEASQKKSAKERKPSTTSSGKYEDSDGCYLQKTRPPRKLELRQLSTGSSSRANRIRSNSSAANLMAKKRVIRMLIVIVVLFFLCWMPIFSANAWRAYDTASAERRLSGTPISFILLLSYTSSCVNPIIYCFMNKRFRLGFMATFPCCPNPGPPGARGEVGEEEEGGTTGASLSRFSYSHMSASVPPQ
T1 sequence (P25101 21-427): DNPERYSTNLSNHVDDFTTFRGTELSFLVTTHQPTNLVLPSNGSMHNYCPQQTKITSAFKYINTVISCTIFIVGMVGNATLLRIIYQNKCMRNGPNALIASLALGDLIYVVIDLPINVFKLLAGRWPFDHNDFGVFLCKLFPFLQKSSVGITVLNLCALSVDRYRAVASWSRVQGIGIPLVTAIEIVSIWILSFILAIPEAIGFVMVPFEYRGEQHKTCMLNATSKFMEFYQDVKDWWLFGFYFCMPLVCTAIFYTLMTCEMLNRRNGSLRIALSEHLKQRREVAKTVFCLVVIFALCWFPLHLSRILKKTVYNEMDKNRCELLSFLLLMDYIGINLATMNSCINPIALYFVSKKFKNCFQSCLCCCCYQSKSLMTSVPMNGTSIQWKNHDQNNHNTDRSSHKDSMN
T6 sequence (P07550 whole entry): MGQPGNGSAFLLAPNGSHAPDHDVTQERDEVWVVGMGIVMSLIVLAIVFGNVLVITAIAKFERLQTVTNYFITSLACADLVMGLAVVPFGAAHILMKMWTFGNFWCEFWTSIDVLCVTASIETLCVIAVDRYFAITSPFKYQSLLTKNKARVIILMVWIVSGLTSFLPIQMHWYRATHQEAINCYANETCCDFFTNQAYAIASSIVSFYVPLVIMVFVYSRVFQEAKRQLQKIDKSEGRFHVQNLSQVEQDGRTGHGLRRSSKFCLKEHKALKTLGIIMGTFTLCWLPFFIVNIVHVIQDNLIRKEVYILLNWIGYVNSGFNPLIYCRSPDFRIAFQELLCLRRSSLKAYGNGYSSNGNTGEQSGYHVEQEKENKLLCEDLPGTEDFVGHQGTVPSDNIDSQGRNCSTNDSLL
T11 sequence (P37288 whole entry): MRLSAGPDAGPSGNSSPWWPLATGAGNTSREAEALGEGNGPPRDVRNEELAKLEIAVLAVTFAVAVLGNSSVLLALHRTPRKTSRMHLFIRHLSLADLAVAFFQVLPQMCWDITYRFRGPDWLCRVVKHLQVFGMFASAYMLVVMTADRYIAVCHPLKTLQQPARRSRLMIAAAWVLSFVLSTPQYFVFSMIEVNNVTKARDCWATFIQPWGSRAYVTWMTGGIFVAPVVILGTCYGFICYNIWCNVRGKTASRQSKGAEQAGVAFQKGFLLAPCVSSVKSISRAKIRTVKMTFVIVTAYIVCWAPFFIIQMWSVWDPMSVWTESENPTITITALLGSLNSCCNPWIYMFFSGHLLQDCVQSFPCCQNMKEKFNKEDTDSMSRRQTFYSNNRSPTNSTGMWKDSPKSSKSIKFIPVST
T10 sequence (P08588 whole entry): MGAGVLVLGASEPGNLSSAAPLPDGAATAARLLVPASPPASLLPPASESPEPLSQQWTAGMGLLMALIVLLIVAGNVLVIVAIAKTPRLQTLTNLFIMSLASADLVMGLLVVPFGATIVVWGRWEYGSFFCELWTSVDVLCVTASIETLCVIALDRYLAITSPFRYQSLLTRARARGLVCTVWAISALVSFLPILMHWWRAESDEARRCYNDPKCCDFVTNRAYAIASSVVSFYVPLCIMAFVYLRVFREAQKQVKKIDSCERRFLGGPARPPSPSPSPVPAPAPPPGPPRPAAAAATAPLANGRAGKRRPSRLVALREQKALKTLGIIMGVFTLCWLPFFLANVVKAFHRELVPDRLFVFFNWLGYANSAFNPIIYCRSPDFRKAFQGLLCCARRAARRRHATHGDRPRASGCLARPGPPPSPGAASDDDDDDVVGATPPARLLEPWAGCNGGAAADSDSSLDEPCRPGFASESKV
T5 sequence (P04150 whole entry): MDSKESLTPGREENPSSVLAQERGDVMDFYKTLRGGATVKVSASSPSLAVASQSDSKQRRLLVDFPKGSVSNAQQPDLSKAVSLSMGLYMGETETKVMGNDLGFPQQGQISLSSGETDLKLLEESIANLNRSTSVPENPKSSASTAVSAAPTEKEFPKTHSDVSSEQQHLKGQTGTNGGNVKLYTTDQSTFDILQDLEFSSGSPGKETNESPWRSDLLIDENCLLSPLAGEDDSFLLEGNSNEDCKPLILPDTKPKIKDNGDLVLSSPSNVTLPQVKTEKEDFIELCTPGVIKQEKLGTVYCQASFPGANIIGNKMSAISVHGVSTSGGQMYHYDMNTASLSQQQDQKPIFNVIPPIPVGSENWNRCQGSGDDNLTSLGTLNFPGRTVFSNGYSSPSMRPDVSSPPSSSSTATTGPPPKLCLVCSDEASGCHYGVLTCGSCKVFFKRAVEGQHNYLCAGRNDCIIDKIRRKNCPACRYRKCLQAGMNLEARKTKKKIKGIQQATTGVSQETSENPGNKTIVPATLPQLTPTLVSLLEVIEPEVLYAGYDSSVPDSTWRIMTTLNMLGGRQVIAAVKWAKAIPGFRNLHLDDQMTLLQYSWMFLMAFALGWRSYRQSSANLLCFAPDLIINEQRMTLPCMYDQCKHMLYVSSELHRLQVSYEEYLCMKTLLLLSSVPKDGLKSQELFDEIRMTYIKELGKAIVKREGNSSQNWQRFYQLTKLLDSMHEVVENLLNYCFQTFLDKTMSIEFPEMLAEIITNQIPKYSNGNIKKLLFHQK
T8 sequence (P29274 whole entry): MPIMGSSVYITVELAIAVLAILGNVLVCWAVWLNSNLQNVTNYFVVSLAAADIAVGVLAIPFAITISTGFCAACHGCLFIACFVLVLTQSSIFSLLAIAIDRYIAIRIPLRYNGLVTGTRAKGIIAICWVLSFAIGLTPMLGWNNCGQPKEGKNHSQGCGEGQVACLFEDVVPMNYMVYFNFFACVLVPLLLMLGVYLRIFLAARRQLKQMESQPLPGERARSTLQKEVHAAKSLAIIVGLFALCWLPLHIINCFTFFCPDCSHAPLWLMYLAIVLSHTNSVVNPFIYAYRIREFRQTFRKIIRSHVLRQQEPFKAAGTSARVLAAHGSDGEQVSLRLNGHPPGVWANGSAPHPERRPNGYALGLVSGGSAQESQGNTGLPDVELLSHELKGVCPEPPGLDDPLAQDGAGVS
T9 sequence (Q14432 whole entry): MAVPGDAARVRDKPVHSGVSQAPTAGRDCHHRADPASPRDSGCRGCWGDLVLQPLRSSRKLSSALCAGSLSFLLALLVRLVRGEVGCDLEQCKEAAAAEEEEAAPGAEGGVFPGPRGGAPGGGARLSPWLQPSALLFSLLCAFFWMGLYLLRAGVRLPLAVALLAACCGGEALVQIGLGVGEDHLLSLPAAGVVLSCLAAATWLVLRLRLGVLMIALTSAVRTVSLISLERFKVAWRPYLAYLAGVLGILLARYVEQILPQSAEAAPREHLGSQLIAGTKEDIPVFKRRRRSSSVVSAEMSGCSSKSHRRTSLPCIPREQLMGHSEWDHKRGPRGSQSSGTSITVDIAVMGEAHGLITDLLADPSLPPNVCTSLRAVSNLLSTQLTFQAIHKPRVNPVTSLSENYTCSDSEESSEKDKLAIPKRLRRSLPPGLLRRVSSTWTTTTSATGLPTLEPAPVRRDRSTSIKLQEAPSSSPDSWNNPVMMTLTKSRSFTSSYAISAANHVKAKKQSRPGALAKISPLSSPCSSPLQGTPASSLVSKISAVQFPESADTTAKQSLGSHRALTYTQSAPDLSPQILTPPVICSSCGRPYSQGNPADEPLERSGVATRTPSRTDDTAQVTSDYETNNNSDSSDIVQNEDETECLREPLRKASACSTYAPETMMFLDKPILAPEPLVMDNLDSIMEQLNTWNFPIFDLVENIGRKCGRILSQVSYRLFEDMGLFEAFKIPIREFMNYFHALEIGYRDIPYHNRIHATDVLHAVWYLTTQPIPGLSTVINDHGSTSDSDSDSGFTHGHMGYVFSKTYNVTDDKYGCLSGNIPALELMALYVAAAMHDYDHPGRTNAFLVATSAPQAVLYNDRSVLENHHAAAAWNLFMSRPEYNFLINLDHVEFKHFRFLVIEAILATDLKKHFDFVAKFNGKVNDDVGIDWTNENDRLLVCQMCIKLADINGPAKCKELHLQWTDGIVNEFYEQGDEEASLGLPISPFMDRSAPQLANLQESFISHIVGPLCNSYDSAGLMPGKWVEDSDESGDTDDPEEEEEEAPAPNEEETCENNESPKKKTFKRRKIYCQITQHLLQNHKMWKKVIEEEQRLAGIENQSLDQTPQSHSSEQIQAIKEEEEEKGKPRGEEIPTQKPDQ
T2 sequence (Q08499 303-809 limits assumed): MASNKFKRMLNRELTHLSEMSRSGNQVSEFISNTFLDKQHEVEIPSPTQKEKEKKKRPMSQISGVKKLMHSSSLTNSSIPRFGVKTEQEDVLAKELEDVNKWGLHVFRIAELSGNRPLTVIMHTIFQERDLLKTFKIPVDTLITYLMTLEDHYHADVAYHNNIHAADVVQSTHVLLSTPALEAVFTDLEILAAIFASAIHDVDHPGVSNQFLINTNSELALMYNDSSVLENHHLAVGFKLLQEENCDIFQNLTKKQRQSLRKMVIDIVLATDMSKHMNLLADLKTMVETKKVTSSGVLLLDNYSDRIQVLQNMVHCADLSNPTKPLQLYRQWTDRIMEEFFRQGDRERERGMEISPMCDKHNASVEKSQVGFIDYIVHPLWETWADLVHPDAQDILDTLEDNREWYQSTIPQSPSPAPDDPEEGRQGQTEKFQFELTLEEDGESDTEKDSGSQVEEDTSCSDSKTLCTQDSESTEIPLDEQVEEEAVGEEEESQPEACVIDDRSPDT

With `Cc1c(C#N)cccc1[C@@H](C)Nc1nnc(C)c2cnc(N3CCOCC3)cc12` [Compound 32, (R)-2-Methyl-3-(1-((4-methyl-7-morpholinopyrido[3,4-d]pyridazin-1-yl)amino)ethyl)benzonitrile] the EC50 (EDNRA; agonist mode, read-out: RC50 (EC50) EDNRA Agonist) was greater than 10 µM, the IC50 (EDNRA; antagonist mode, read-out: RC50 (IC50) EDNRA Antagonist) was greater than 10 µM and the IC50 (PDE4D2) was greater than 10 µM. For the same compound, the IC50 (COX2) was greater than 10 µM, the IC50 (VEGFR2) was greater than 10 µM and the EC50 (GR; agonist mode, read-out: RC50 (EC50) GR Agonist) was greater than 10 µM. For the same compound, the IC50 (GR; antagonist mode, read-out: RC50 (IC50) GR Antagonist) was greater than 10 µM, the EC50 (ADRB2; agonist mode, read-out: RC50 (EC50) ADRB2 Agonist) was greater than 10 µM and the IC50 (ADRB2; antagonist mode, read-out: RC50 (IC50) ADRB2 Antagonist) was greater than 10 µM. It also gave an EC50 (CCKAR; agonist mode, read-out: RC50 (EC50) CCKAR Agonist) greater than 10 µM, an IC50 (CCKAR; antagonist mode, read-out: RC50 (IC50) CCKAR Antagonist) greater than 10 µM and an EC50 (ADORA2A; agonist mode, read-out: RC50 (EC50) ADORA2A Agonist) greater than 10 µM. It also gave an IC50 (ADORA2A; antagonist mode, read-out: RC50 (IC50) ADORA2A Antagonist) greater than 10 µM, a clearance [1, 4] of 4.4 to 14.6 mL/min/kg and a half-life [1, 4] of 37.2 to 78 min. For the same compound, the Vd ([1]; CD-1, Sprague-Dawley, beagle, mouse, rat, dog, in vivo, IV administration, read-out: volume of distribution) was 0.28 to 0.48 L/kg, the bioavailability ([1]; PO suspension in 0.5% MC (4000 cps)/0.2% Tween80 in water) was 38–83 %F and the IC50 (PDE3A) was greater than 10 µM. For the same compound, the “IV t1/2” value (Rat PK (IV and PO); IV 1 mg/kg) was 37.2 min, the “Vd,ss” value (Rat PK (IV and PO); IV 1 mg/kg) was 0.28 L/kg and the clearance (Rat PK (IV and PO); Sprague-Dawley, in vivo, IV 1 mg/kg) was 14.6 mL/min/kg. The bioavailability (Rat PK (IV and PO); Sprague-Dawley, in vivo, IV/PO 1/10 mg/kg, PO suspension in 0.5% MC (4000 cps)/0.2% Tween80 in water) was 83%, the IC50 [2] was greater than 10 µM and the EC50 (ADRB1; agonist mode, read-out: RC50 (EC50) ADRB1 Agonist) was greater than 10 µM. For the same compound, the IC50 (ADRB1; antagonist mode, read-out: RC50 (IC50) ADRB1 Antagonist) was greater than 10 µM, the EC50 (AVPR1A; agonist mode, read-out: RC50 (EC50) AVPR1A Agonist) was greater than 10 µM and the IC50 (AVPR1A; antagonist mode, read-out: RC50 (IC50) AVPR1A Antagonist) was greater than 10 µM. The “pERK modulation in tumors, combination” value ([3]; MRTX0902 in combination with MRTX849, 6 days of dosing, tumors collected 4 h after last dose) was “increased pERK modulation”, the “efficacious free Cavg” value ([3]; calculated from AUC0–24 of 50 mg/kg bid in combination with MRTX849, MIA PaCa-2 PD study, 6 days of dosing) was 25 nM and the bioavailability (in vivo) was 69%. The IC50 (CAV1.2) was greater than 10 µM, the IC50 (SOS2) was greater than 10 µM and the IC50 (INSR) was greater than 10 µM.
